According to PubChem BioAssay AID342 (DTP/NCI, 2004):
Several values for one entry are separate records, joined by “and”; a condition that tells them apart may be missing. Equal entries are not always repeated. Numbered stars: 1 amine (or outer) side, 2 acyl side, 3 side chain; on linkers, the order of the positions; unused ones are H or OH. Bridge positions count the residues as written; N and C are the ends. Square brackets hold non-standard residues; d marks the D form. Peptide text beside a SMILES is read from it. * marks the point of attachment. X1 = CC(C)C(C)C(C(=O)[*:2])N(C)[*:1]; Picolinoyl(3-OH) = O=C(c1ncccc1O)*; NMePhg = CN[CH](C(=O)O)c1ccccc1; Hyp = O=C(O)[CH]1C[CH](O)CN1; Sar = CNCC(=O)O

System: Swiss mice, Sarcoma 180 sc, mean tumor weight T/C
Assay: NCI In Vivo Anticancer Drug Screen. Data for tumor model Sarcoma 180 (subcutaneous) in Swiss mice
Settings: endpoint: mean tumor weight, higher = larger tumour
Outline: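 Tumor-bearing mice, transplantable tumor; readout survival or tumor size; result = T/C, treated vs vehicle control.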

[1] = dose: 225.0 mg/kg/injection, schedule: Q01DX007 (ip), vehicle: carboxymethylcellulose (CMC)
[2] = dose: 25.0 mg/kg/injection, schedule: Q01DX007 (ip), vehicle: carboxymethylcellulose (CMC)
[3] = dose: 50.0 mg/kg/injection, schedule: Q01DX007 (ip), vehicle: carboxymethylcellulose (CMC)
[4] = dose: 200.0 mg/kg/injection, schedule: Q01DX007 (ip), vehicle: carboxymethylcellulose (CMC)
[5] = dose: 50.0 mg/kg/injection, schedule: Q#A X014 (ip), vehicle: methylcellulose (MC)
[6] = dose: 100.0 mg/kg/injection, schedule: Q01DX007 (ip), vehicle: carboxymethylcellulose (CMC)

CN(CC#N)/N=N/c1nc[nH]c1C(N)=O
T/C [1]: 38 % of control

c1ccc2cc3c(cc2c1)Cn1c-3nc2ccccc21
T/C [2]: 76 % of control
T/C [3]: 86 % of control
T/C [4]: 53 % of control and 57 % of control
T/C (dose: 400.0 mg/kg/injection, schedule: Q01DX007 (ip), vehicle: carboxymethylcellulose (CMC)): 54 % of control
T/C (dose: 500.0 mg/kg/injection, schedule: Q01DX007 (ip), vehicle: carboxymethylcellulose (CMC)): 27 % of control and 34 % of control
T/C (dose: 800.0 mg/kg/injection, schedule: Q01DX007 (ip), vehicle: carboxymethylcellulose (CMC)): 38 % of control

CCCCOC(=O)C1(N)CCCC1
T/C (dose: 60.0 mg/kg/injection, schedule: Q01DX007 (ip), vehicle: carboxymethylcellulose (CMC)): 72 % of control
T/C (dose: 90.0 mg/kg/injection, schedule: Q01DX007 (ip), vehicle: carboxymethylcellulose (CMC)): 72 % of control
T/C (dose: 135.0 mg/kg/injection, schedule: Q01DX007 (ip), vehicle: carboxymethylcellulose (CMC)): 33 % of control
T/C (dose: 148.0 mg/kg/injection, schedule: Q01DX007 (ip), vehicle: saline): 54 % of control
T/C [4]: 12 % of control
T/C (dose: 202.0 mg/kg/injection, schedule: Q01DX007 (ip), vehicle: carboxymethylcellulose (CMC)): 33 % of control
T/C (dose: 225.0 mg/kg/injection, schedule: Q01DX007 (ip), vehicle: saline): 33 % of control
T/C (dose: 336.0 mg/kg/injection, schedule: Q01DX007 (ip), vehicle: saline): 11 % of control

COC(=O)[C@H]1[C@H]2C[C@@H]3c4[nH]c5cc(OC)ccc5c4CCN3C[C@H]2C[C@@H](OC(=O)c2cc(OC)c(OC)c(OC)c2)[C@@H]1OC
T/C (dose: 0.44 mg/kg/injection, schedule: Q01DX007 (ip), vehicle: carboxymethylcellulose (CMC)): 101 % of control
T/C (dose: 0.5 mg/kg/injection, schedule: Q01DX007 (ip), vehicle: carboxymethylcellulose (CMC)): 91 % of control
T/C (dose: 0.66 mg/kg/injection, schedule: Q01DX007 (ip), vehicle: carboxymethylcellulose (CMC)): 79 % of control
T/C (dose: 2.0 mg/kg/injection, schedule: Q01DX007 (ip), vehicle: carboxymethylcellulose (CMC)): 35 % of control
T/C (dose: 2.3 mg/kg/injection, schedule: Q01DX007 (ip), vehicle: carboxymethylcellulose (CMC)): 42 % of control
T/C (dose: 3.4 mg/kg/injection, schedule: Q01DX007 (ip), vehicle: carboxymethylcellulose (CMC)): 18 % of control

CC[C@]1(O)C[C@H]2CN(CCc3c([nH]c4ccccc34)[C@@](C(=O)OC)(c3cc4c(cc3OC)N(C=O)[C@H]3[C@@](O)(C(=O)OC)[C@H](OC(C)=O)[C@]5(CC)C=CCN6CC[C@]43[C@@H]65)C2)C1
T/C (dose: 0.12 mg/kg/injection, schedule: Q01DX007 (ip), vehicle: saline): 57 % of control

C[C@]12C=CC(=O)C=C1[C@@H](F)C[C@@H]1[C@@H]2[C@@H](O)C[C@@]2(C)[C@H]1CC[C@]2(O)C(=O)CO
T/C (dose: 3.5 mg/kg/injection, schedule: Q#A X014 (sc), vehicle: steriod suspending solution): 85 % of control
T/C (dose: 7.0 mg/kg/injection, schedule: Q#A X014 (sc), vehicle: steriod suspending solution): 98 % of control
T/C (dose: 10.0 mg/kg/injection, schedule: Q#A X014 (sc), vehicle: steriod suspending solution): 76 % of control
T/C (dose: 15.5 mg/kg/injection, schedule: Q#A X014 (sc), vehicle: steriod suspending solution): 72 % of control
T/C (dose: 22.5 mg/kg/injection, schedule: Q#A X014 (sc), vehicle: steriod suspending solution): 67 % of control

O=c1[nH]c(=S)c2[nH]c(=O)[nH]c2[nH]1
T/C [5]: 94 % of control
T/C (dose: 100.0 mg/kg/injection, schedule: Q#A X014 (ip), vehicle: methylcellulose (MC)): 73 % of control
T/C (dose: 200.0 mg/kg/injection, schedule: Q#A X014 (ip), vehicle: methylcellulose (MC)): 101 % of control

O=CNC(Cc1ccc(N(CCCl)CCCl)cc1)C(=O)O (stereo unspecified)
T/C (dose: 22.0 mg/kg/injection, schedule: Q#A X014 (ip), vehicle: methylcellulose (MC)): 61 % of control
T/C (dose: 33.0 mg/kg/injection, schedule: Q#A X014 (ip), vehicle: methylcellulose (MC)): 60 % of control
T/C [5]: 25 % of control
T/C (dose: 75.0 mg/kg/injection, schedule: Q#A X014 (ip), vehicle: methylcellulose (MC)): 11 % of control

O=C(O)c1c(-c2ccccc2)[nH]c2cc(Cl)ccc2c1=O
T/C (dose: 55.5 mg/kg/injection, schedule: Q01DX007 (ip), vehicle: carboxymethylcellulose (CMC)): 87 % of control
T/C (dose: 83.0 mg/kg/injection, schedule: Q01DX007 (ip), vehicle: carboxymethylcellulose (CMC)): 51 % of control
T/C (dose: 125.0 mg/kg/injection, schedule: Q01DX007 (ip), vehicle: carboxymethylcellulose (CMC)): 25 % of control

CN(C)/N=N/c1nc[nH]c1C(N)=O
T/C (dose: 11.0 mg/kg/injection, schedule: Q01DX007 (ip), vehicle: saline): 58 % of control
T/C (dose: 12.5 mg/kg/injection, schedule: Q#A X014 (ip), vehicle: methylcellulose (MC)): 68 % of control
T/C (dose: 20.0 mg/kg/injection, schedule: Q01DX007 (ip), vehicle: carboxymethylcellulose (CMC)): 89 % of control
T/C (dose: 22.0 mg/kg/injection, schedule: Q01DX007 (ip), vehicle: saline): 62 % of control
T/C (dose: 25.0 mg/kg/injection, schedule: Q#A X014 (ip), vehicle: methylcellulose (MC)): 43 % of control
T/C (dose: 40.0 mg/kg/injection, schedule: Q01DX007 (ip), vehicle: carboxymethylcellulose (CMC)): 62 % of control
T/C (dose: 44.0 mg/kg/injection, schedule: Q01DX007 (ip), vehicle: carboxymethylcellulose (CMC)): 23 % of control and 43 % of control
T/C [5]: 29 % of control
T/C (dose: 66.0 mg/kg/injection, schedule: Q01DX007 (ip), vehicle: carboxymethylcellulose (CMC)): 28 % of control and 53 % of control
T/C [6]: 28 % of control and 29 % of control
T/C (dose: 150.0 mg/kg/injection, schedule: Q01DX007 (ip), vehicle: carboxymethylcellulose (CMC)): 19 % of control and 23 % of control
T/C (dose: 160.0 mg/kg/injection, schedule: Q01DX007 (ip), vehicle: carboxymethylcellulose (CMC)): 51 % of control and 73 % of control
T/C [1]: 21 % of control
T/C (dose: 320.0 mg/kg/injection, schedule: Q01DX007 (ip), vehicle: carboxymethylcellulose (CMC)): 39 % of control and 45 % of control
T/C (dose: 640.0 mg/kg/injection, schedule: Q01DX007 (ip), vehicle: carboxymethylcellulose (CMC)): 25 % of control

CC(C)CC1NC(=O)C(NC(=O)c2ncccc2O)C(C)OC(=O)C(c2ccccc2)N(C)C(=O)C(C)NC(=O)C(C(C)C(C)C)N(C)C(=O)CN(C)C(=O)C2CC(O)CN2C1=O (stereo unspecified) ({Picolinoyl(3-OH)}-TL[Hyp][Sar][X1]A[NMePhg]; ester 1-C; configuration not given here)
T/C (dose: 6.25 mg/kg/injection, schedule: Q01DX007 (ip), vehicle: carboxymethylcellulose (CMC)): 85 % of control
T/C [2]: 106 % of control
T/C [3]: 114 % of control
T/C (dose: 75.0 mg/kg/injection, schedule: Q01DX007 (ip), vehicle: carboxymethylcellulose (CMC)): 67 % of control
T/C [6]: 100 % of control
T/C [4]: 98 % of control

O=CNc1c(Br)cc2c(c1Br)Cc1cc([N+](=O)[O-])ccc1-2
T/C (dose: 7.0 mg/kg/injection, schedule: Q01DX007 (ip), vehicle: carboxymethylcellulose (CMC)): 52 % of control
T/C (dose: 11.0 mg/kg/injection, schedule: Q01DX007 (ip), vehicle: carboxymethylcellulose (CMC)): 45 % of control
T/C (dose: 17.0 mg/kg/injection, schedule: Q01DX007 (ip), vehicle: carboxymethylcellulose (CMC)): 40 % of control
T/C (dose: 26.0 mg/kg/injection, schedule: Q01DX007 (ip), vehicle: carboxymethylcellulose (CMC)): 22 % of control

ClCc1c2ccccc2c(CCl)c2ccccc12
T/C (dose: 0.25 mg/kg/injection, schedule: Q01DX007 (ip), vehicle: methylcellulose (MC)): 95 % of control
T/C (dose: 0.5 mg/kg/injection, schedule: Q01DX007 (ip), vehicle: methylcellulose (MC)): 89 % of control
T/C (dose: 1.0 mg/kg/injection, schedule: Q01DX007 (ip), vehicle: methylcellulose (MC)): 122 % of control
T/C (dose: 1.5 mg/kg/injection, schedule: Q01DX007 (ip), vehicle: methylcellulose (MC)): 72 % of control
T/C (dose: 1.8 mg/kg/injection, schedule: Q01DX007 (ip), vehicle: other): 22 % of control
T/C (dose: 1.8 mg/kg/injection, schedule: Q01DX007 (ip), vehicle: saline): 113 % of control
T/C (dose: 2.0 mg/kg/injection, schedule: Q01DX007 (ip), vehicle: methylcellulose (MC)): 72 % of control
T/C (dose: 2.6 mg/kg/injection, schedule: Q01DX007 (ip), vehicle: other): 23 % of control
T/C (dose: 2.6 mg/kg/injection, schedule: Q01DX007 (ip), vehicle: saline): 102 % of control
T/C (dose: 4.0 mg/kg/injection, schedule: Q01DX007 (ip), vehicle: other): 26 % of control
T/C (dose: 6.0 mg/kg/injection, schedule: Q01DX007 (ip), vehicle: other): 17 % of control
T/C (dose: 9.0 mg/kg/injection, schedule: Q01DX007 (ip), vehicle: saline): 40 % of control

OC1C(O)C(O)C2(CO2)C(O)C1O (stereo unspecified)
T/C (dose: 150.0 mg/kg/injection, schedule: Q#A X014 (ip), vehicle: saline): 122 % of control
T/C (dose: 300.0 mg/kg/injection, schedule: Q#A X014 (ip), vehicle: saline): 79 % of control
